These results are taken from ChEMBL document CHEMBL1144975, “Improving the selectivity of acyclic nucleoside analogues as inhibitors of human mitochondrial thymidine kinase: replacement of a triphenylmethoxy moiety with substituted amines and carboxamides” (Bioorg Med Chem Lett, 2003).

For the experiment, the target named is T1, Thymidine kinase, cytosolic (Homo sapiens, UniProt P04183).
T1 sequence (P04183 whole entry): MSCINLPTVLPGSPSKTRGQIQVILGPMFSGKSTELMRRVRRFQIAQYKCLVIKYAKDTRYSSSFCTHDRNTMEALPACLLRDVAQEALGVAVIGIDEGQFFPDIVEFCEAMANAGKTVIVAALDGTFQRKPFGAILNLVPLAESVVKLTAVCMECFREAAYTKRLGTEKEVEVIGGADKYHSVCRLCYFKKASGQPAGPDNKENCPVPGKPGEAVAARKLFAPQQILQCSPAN
The experiment can be described thus: Inhibitory concentration on phosphorylation of [methyl-3H]-dTh by human Thymidine Kinase 1.

The IC50 is the concentration at which inhibition is half-maximal. Low readings indicate greater potency in that assay, high ones weaker potency in that assay.

Take `Cc1cn(C/C=C\CN(Cc2ccccc2)Cc2ccccc2)c(=O)[nH]c1=O`: the IC50 was above 500 µM.
